Two compounds from patent US20250057872A1, “INNATE IMMUNOMODULATORY EFFECT OF GINSENG BERRY POLYSACCHARIDES IN IMMUNOCOMPROMISED CONDITIONS” (GANGNEUNG-WONJU NATIONAL UNIVERSITY INDUSTRY ACADEMY …, priority 2022, published 2025) can be followed below.

Test [1] relates to mice immunosuppressed by administering cyclophosphamide (CY). The experiment in a line: Spleen size and spleen index in cyclophosphamide (CY)-immunosuppressed mice. In kind it is in vivo, BALB/c mice. Particulars: CY (80 mg/kg IP) mice, CY group compared to normal group, LEV 40 mg/kg, red ginseng 100 mg/kg, GBPs 50, 100, 250, 500 mg/kg BW orally; for spleen size: FIG. 1; for spleen index: FIG. 2. The procedure:
Six-week-old male BALB/c mice (21-23 g) were purchased from the Central Lab, Animal Inc. (Korea) and housed under standard conditions with temperature maintained at 22±2° C. and a 12-h/12-h dark/light cycle.
(§1) In the present invention, 40 mice were randomly divided into 8 groups (n=5 per group) and variously treated according to Table 1.
(§2) Cyclophosphamide (CY) was used to induce immunosuppressive models by intraperitoneal (IP) injection at a dose of 80 mg/kg body weight (BW). […] In addition, ginseng was used with a commercially available product, and mice were sacrificed 24 hours after the last treatment of samples in Table 1.
The spleen was dissected and weighed. The spleen index was calculated according to Formula below:
Spleen index (mg/g)=spleen weight/body weight of mouse [Formula]

For another test, the system named is splenic lymphocytes. The experiment in a line: Splenic lymphocyte proliferation (EZ-Cytox) of splenocytes from treated mice, stimulated with Con A or LPS. In kind it is in vivo, BALB/c mice. Particulars: CY-treated group (80 mg/kg IP) compared to the normal group. The procedure: as §1, §2
A further test relates to NK cells. Kind of test: NK cell-mediated cytotoxicity assay, splenocytes co-cultured with YAC-1 cells. It is filed as in vivo, BALB/c mice. Particulars: CY-treated group (80 mg/kg IP); effector:target 50:1. On the procedure: as §1, §2
Test [2] has as its system immune-related genes (IL-1β, IL-2, IL-4, IL-6, TNF-α, IFN-γ, TLR-4, COX-2). Also noted: species or system BALB/c mice. Particulars: mouse, in vivo. The procedure:
as §1, §2

On to `O=P1(N(CCCl)CCCl)NCCCO1` (centres unmarked) [CY, Cyclophosphamide], for which, in test [1], the spleen size result is “decreases in both spleen size and spleen indices”; the spleen index result is “decreases in both spleen size and spleen indices”. In addition, the “Con A-stimulated cell proliferation, reduction” value in the test with splenic lymphocytes (Con A 5 μg/ml) is recorded as 48.1%. For the same compound, the “LPS-stimulated cell proliferation, reduction” value in the test with splenic lymphocytes (LPS 10 μg/ml) was 57.1%. In addition, in the test on NK cells, the “activity of NK cells” value is given as 42.9%. Besides, the “mRNA expression levels of immune-related genes IL-2, IL-4, IL-6, TNF-α, IFN-γ, TLR-4 and COX-2” value in test [2] is given as “lower than those of the normal group”.

As to `c1ccc([C@H]2CN3CCSC3=N2)cc1` [LEV, Levamisole], in test [1], the spleen size result is “increased spleen size and indices”; the spleen index entry was “increased spleen size and indices”.
